Results on twelve compounds are retold here after ChEMBL document CHEMBL1138676, “Liver-selective glucocorticoid antagonists: a novel treatment for type 2 diabetes” (J Med Chem, 2004).

The structures appear in SMILES notation. Some results are limits rather than exact numbers.

Usually Ki stands for a measure of affinity in units of concentration, obtained from inhibition or displacement.

One assay has as its target T1, Estrogen receptor (Homo sapiens, UniProt P03372).
T1 sequence (P03372 whole entry): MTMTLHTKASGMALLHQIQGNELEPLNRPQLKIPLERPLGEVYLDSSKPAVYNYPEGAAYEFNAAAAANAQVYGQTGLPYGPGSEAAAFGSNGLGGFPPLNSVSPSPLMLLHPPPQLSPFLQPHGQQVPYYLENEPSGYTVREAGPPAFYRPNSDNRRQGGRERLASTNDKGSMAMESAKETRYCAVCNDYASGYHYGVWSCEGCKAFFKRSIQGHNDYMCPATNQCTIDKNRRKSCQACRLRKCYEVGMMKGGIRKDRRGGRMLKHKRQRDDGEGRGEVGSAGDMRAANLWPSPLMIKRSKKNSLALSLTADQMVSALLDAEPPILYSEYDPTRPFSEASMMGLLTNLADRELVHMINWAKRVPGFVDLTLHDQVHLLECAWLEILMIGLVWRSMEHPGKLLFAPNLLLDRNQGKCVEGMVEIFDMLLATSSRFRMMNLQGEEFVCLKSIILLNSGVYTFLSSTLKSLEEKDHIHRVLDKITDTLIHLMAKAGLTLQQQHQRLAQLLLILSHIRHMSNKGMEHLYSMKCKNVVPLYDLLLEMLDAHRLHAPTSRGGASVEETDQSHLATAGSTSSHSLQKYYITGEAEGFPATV
Briefly: Inhibition of human Estrogen receptor alpha.

In assay [1] the target is T2, Thyroid hormone receptor beta (Homo sapiens, UniProt P10828).
T2 sequence (P10828 whole entry): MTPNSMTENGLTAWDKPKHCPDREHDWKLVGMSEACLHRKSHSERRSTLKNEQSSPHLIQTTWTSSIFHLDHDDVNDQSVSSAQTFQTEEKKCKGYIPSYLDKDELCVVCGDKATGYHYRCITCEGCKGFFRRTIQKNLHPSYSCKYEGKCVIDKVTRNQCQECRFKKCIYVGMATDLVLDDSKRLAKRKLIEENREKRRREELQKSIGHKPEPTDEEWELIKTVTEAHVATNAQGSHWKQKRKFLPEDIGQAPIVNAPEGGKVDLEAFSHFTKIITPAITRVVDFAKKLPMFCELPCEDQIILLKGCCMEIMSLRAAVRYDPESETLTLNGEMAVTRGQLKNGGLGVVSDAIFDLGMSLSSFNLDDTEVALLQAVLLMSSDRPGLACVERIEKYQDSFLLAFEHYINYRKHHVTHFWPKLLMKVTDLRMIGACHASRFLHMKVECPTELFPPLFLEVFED
Briefly: Inhibition of human Thyroid hormone receptor beta.

For another assay, the target named is T3, Androgen receptor (Homo sapiens, UniProt P10275).
T3 sequence (P10275 whole entry): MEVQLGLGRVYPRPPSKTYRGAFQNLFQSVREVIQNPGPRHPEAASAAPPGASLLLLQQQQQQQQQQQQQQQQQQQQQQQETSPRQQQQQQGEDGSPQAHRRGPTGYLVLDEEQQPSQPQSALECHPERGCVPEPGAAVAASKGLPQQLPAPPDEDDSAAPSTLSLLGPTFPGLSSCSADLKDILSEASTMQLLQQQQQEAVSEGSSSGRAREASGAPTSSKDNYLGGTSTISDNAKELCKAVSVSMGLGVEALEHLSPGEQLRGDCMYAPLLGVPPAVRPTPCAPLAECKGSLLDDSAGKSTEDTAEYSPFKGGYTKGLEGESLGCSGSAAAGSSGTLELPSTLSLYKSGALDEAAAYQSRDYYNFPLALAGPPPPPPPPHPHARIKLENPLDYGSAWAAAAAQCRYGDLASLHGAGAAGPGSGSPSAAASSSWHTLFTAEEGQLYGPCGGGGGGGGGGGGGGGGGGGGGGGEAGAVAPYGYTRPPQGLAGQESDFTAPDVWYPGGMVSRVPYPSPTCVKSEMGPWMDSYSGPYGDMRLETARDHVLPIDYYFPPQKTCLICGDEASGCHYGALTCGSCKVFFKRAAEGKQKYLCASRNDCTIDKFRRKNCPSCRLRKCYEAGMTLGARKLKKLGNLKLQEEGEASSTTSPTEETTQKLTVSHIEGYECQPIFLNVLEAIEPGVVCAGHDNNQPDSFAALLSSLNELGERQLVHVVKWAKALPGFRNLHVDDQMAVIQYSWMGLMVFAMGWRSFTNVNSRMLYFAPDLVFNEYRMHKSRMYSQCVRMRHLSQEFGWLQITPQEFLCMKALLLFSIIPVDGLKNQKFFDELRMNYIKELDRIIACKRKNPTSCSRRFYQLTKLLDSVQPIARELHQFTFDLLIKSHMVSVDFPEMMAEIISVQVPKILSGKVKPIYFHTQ

The target in assay [2] is T4, Mineralocorticoid receptor (Homo sapiens, UniProt P08235).
T4 sequence (P08235 whole entry): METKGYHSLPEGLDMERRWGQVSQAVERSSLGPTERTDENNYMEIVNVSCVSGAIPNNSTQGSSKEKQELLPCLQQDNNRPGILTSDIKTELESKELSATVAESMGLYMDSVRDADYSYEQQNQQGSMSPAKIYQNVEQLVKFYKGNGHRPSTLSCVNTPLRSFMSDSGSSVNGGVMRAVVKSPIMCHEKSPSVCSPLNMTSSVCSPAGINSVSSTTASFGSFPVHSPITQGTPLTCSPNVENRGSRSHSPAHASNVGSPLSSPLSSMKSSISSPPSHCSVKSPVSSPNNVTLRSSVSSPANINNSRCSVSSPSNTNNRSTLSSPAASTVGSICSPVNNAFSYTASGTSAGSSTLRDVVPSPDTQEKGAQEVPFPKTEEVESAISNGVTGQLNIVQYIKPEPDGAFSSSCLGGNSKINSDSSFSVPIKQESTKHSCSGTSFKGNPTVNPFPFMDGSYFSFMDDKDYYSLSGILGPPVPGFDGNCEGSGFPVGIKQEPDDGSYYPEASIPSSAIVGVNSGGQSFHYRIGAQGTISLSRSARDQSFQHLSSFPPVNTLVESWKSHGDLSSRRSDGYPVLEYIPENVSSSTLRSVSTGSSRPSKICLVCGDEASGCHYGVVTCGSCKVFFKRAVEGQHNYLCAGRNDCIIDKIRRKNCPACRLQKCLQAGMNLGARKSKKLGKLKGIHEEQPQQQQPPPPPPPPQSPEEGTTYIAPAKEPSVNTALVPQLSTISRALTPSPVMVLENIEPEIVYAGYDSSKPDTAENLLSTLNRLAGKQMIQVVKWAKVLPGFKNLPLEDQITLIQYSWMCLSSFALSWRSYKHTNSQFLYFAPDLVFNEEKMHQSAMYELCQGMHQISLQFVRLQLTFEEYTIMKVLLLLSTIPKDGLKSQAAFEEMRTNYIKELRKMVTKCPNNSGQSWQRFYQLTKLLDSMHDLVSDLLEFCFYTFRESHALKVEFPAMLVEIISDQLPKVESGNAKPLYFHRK
Description: Inhibition of human Mineralocorticoid receptor

Assay [3] deals with Glucocorticoid receptor (Rattus norvegicus) (UniProt P06536). Briefly: Inhibition of glucocorticoid receptor mediated tyrosine amino transferase activity.
Sequence of Glucocorticoid receptor (Rattus norvegicus) (P06536 whole entry, looked up): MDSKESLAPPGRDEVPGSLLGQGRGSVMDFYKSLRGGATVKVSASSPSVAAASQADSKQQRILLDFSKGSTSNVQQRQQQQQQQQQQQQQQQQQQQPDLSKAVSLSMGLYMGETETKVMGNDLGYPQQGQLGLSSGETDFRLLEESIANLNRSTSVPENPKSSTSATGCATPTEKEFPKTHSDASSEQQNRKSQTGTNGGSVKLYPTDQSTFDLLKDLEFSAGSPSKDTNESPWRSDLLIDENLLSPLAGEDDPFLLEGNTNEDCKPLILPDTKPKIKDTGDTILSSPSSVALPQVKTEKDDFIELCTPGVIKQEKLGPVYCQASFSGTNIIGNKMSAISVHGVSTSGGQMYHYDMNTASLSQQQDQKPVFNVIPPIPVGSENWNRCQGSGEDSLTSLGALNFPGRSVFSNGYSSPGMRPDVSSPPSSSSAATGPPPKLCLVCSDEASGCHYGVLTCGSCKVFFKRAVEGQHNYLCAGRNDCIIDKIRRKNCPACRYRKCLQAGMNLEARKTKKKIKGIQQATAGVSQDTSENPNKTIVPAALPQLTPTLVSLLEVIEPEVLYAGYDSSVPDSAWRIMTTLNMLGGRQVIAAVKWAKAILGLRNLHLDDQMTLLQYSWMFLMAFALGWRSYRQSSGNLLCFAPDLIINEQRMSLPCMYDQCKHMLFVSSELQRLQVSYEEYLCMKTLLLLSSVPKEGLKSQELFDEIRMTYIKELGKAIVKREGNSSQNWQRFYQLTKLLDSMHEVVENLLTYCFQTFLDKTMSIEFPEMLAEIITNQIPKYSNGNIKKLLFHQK

Description for Androgen receptor: Inhibition of human androgen receptor

With `C#C[C@]1(O)CC[C@H]2[C@@H]3CCC4=CC(=O)CCC4=C3[C@@H](c3ccc(N(C)CCOC4CC[C@@]5(C)[C@@H](C4)C[C@@H](O)[C@@H]4[C@@H]5C[C@H](O)[C@]5(C)[C@@H]([C@H](C)CCC(=O)O)CC[C@@H]45)cc3)C[C@@]21C` (stereo in doubt; form 2), the Ki was found to be 12 nM on Estrogen receptor; 1500 nM in assay [1]; 8.1 nM on Androgen receptor; 440 nM in assay [2]; 56 nM in assay [3].
Turning to `C#C[C@]1(O)CC[C@H]2[C@@H]3CCC4=CC(=O)CCC4=C3[C@@H](c3ccc(N(C)CCOC4CC[C@@]5(C)[C@@H](C4)C[C@@H](O)[C@@H]4[C@@H]5C[C@H](O)[C@]5(C)[C@@H]([C@H](C)CCC(=O)NCC(=O)O)CC[C@@H]45)cc3)C[C@@]21C` (stereo partly specified), the Ki is over 2250 nM in assay [1], 34 nM at Androgen receptor, 510 nM in assay [2] and 180 nM in assay [3].
As for `C#C[C@]1(O)CC[C@H]2[C@@H]3CCC4=CC(=O)CCC4=C3[C@@H](c3ccc(N(C)CCNC(=O)N(C)C4CC[C@@]5(C)[C@@H](C4)C[C@@H](O)[C@@H]4[C@@H]5C[C@H](O)[C@]5(C)[C@@H]([C@H](C)CCC(=O)O)CC[C@@H]45)cc3)C[C@@]21C` (stereo partly specified), the Ki at Estrogen receptor is 140 nM; in assay [1] it was over 2250 nM; at Androgen receptor it was 16 nM; in assay [2], 850 nM; in assay [3] it was 34 nM.
The corresponding values for `C#C[C@]1(O)CC[C@H]2[C@@H]3CCC4=CC(=O)CCC4=C3[C@@H](c3ccc(N(C)CCOC4CC[C@@]5(C)[C@@H](C4)C[C@@H](O)[C@@H]4[C@@H]5C[C@H](O)[C@]5(C)[C@@H]([C@H](C)CCC(=O)NCCS(=O)(=O)O)CC[C@@H]45)cc3)C[C@@]21C` (stereo partly specified) are 10 nM, over 2250 nM, 8.9 nM, 140 nM and 160 nM.
On to `C#C[C@]1(O)CC[C@H]2[C@@H]3CCC4=CC(=O)CCC4=C3[C@@H](c3ccc(N(C)C(C)=O)cc3)C[C@@]21C`, for which the Ki at Estrogen receptor was 34 nM; in assay [1], over 2250 nM; on Androgen receptor, 8.9 nM; in assay [2] it was over 1000 nM.
Consider `C#C[C@]1(O)CC[C@H]2[C@@H]3CCC4=CC(=O)CCC4=C3[C@@H](c3ccc(N(C)CCOCCO[C@H]4CC[C@@]5(C)[C@@H](C4)C[C@@H](O)[C@@H]4[C@@H]5C[C@H](O)[C@]5(C)[C@@H]([C@H](C)CCC(=O)O)CC[C@@H]45)cc3)C[C@@]21C`, for which the Ki at Estrogen receptor was 14 nM; in assay [1], over 2250 nM; at Androgen receptor it was 3.3 nM; in assay [2] it was 150 nM; in assay [3], 56 nM.
For `C#C[C@]1(O)CC[C@H]2[C@@H]3CCC4=CC(=O)CCC4=C3[C@@H](c3ccc(N(C)C(=O)CNC(=O)OC4CC[C@@]5(C)[C@@H](C4)C[C@@H](O)[C@@H]4[C@@H]5C[C@H](O)[C@]5(C)[C@@H]([C@H](C)CCC(=O)O)CC[C@@H]45)cc3)C[C@@]21C` (stereo partly specified), in that order: 11 nM, over 2250 nM, 21 nM, 310 nM and 340 nM.
With `C#C[C@]1(O)CC[C@H]2[C@@H]3CCC4=CC(=O)CCC4=C3[C@@H](c3ccc(N(C)CCCS(=O)(=O)N(C)C4CC[C@@]5(C)[C@@H](C4)C[C@@H](O)[C@@H]4[C@@H]5C[C@H](O)[C@]5(C)[C@@H]([C@H](C)CCC(=O)O)CC[C@@H]45)cc3)C[C@@]21C` (stereo partly specified), the Ki stood at 19 nM on Estrogen receptor, 17 nM at Androgen receptor, 300 nM in assay [2] and 60 nM in assay [3].
`C#C[C@]1(O)CC[C@H]2[C@@H]3CCC4=CC(=O)CCC4=C3[C@@H](c3ccc(N(C)CCOC4CC[C@@]5(C)[C@@H](C4)C[C@@H](O)[C@@H]4[C@@H]5C[C@H](O)[C@]5(C)[C@@H]([C@H](C)CCC(=O)O)CC[C@@H]45)cc3)C[C@@]21C` (stereo in doubt; form 1): the Ki was 11 nM on Estrogen receptor; over 2250 nM in assay [1]; 8.9 nM at Androgen receptor; over 1000 nM in assay [2]; 220 nM in assay [3].
For `C#C[C@]1(O)CC[C@H]2[C@@H]3CCC4=CC(=O)CCC4=C3[C@@H](c3ccc(N(C)C(=O)CC[C@H](NC(=O)CC[C@@H](C)[C@H]4CC[C@H]5[C@@H]6[C@H](O)C[C@@H]7C[C@H](O)CC[C@]7(C)[C@H]6C[C@H](O)[C@]45C)C(=O)O)cc3)C[C@@]21C`, in that order: 72 nM, over 2250 nM, 34 nM, 590 nM and 350 nM.
As to `C#C[C@]1(O)CC[C@H]2[C@@H]3CCC4=CC(=O)CCC4=C3[C@@H](c3ccc(N(C)CCC[C@H]4[C@H](O)CC[C@@]5(C)[C@@H]4C[C@@H](O)[C@@H]4[C@@H]5C[C@H](O)[C@]5(C)[C@@H]([C@H](C)CCC(=O)O)CC[C@@H]45)cc3)C[C@@]21C`, the Ki at Estrogen receptor was 46 nM; at Androgen receptor, 53 nM; in assay [2] it was over 1000 nM; in assay [3] it was 340 nM.
In the case of `C#C[C@]1(O)CC[C@H]2[C@@H]3CCC4=CC(=O)CCC4=C3[C@@H](c3ccc(N(C)C(=O)CNC(=O)O[C@@H]4C[C@@H]5CC(O)CC[C@]5(C)[C@H]5C[C@H](O)[C@]6(C)[C@@H]([C@H](C)CCC(=O)O)CC[C@H]6[C@H]45)cc3)C[C@@]21C` (stereo partly specified), the Ki at Estrogen receptor is 94 nM; in assay [1] it was over 2250 nM; at Androgen receptor it was 37 nM; in assay [2], over 1000 nM; in assay [3] it was 230 nM.
